In patent US7714014B2, “Targeting GLI proteins in human cancer by small molecules” (The Regents of the University of California, priority 2005, dated 2010):
Entries after “also recorded” stand apart in the source; their conditions may differ.

Legend:
[1] = system: human pancreatic cancer cell lines L3.6sl, Panc4.21, BxPC3, and CFPAC-1; assay: Cell survival assay (crystal violet); type: cell-based; details: for cell killing: 50 μM, all pancreatic lines analyzed
Procedure: (§1) Typically, the small molecule compounds of the present invention were dissolved in DMSO at a concentration of 30 mM. The small molecule compounds were then tested under cell culture conditions at different concentrations ranging from 0, 10, 30, 50, to 100 uM. To determine cell survival after treatment, the cells were incubated with the small molecule compounds in 6-well plates for about 3 days. After removal of the cell culture medium, 1-ml of 0.5% crystal violet solution (prepared in 20% ethanol and 20% methanol) was added to stain the cells for 5 min. Then the crystal violet solution was rinsed clean with tap water. Cell survival was estimated based on the density of crystal stained plates.
The cell-based cytotoxicity assay described herein was used to determine the effect of small molecule compounds FN1-5 and FN1-8 on the human pancreatic cancer cell lines L3.6sl, Panc4.21, BxPC3, and CFPAC-1. Viability of these cells was analyzed after treatment with 10, 30 and 50 μM FN1-5 or FN1-8. […] However, cell killing mediated by FN1-5 in Panc4.21 was less when compared to its effect on the three other pancreatic cancer cell lines.

[2] = system: human nasopharyngeal cancer cell lines HNE1 and HONE1; assay: Cell survival assay (crystal violet); type: cell-based; details: for cell killing: 50 μM
Procedure: as §1
The cell-based cytotoxicity assay described herein was used to determine the effect of small molecule compounds FN1-5 and FN1-8 in the human nasopharyngeal cancer cell lines HNE1 and HONE1. Viability of these cells was analyzed after treatment with 10, 30 and 50 μM FN1-5 or FN1-8.

[3] = system: GLI1- and GLI2-induced transcription in Panc4.21 pancreatic cancer cells; assay: 6xGLI BS-luciferase reporter assay; type: cell-based, human; details: for 6xGLI BS-luciferase activity (TAFII31 co-transfected with GLI1 or GLI2): Panc4.21, 20 μM for 16-20 hours; for 6xGLI BS-luciferase activity (GLI1- or GLI2-induced): Panc4.21, 20 μM, 16-20 hours
Procedure: One day before transfection, cells (1×10^5) were plated in 12-well plates with growth medium without antibiotics. When cells reached 80-90% of confluence they were co-transfected using 0.5 μg of each promoter construct in pGL3Basic vector and 0.025 μg pRL-TK Vector (Promega; Madison, Wis.) containing Renilla Luciferase as an internal control for the transformation efficiency. Lipofectamine 2000™ (Invitrogen Life Technologies) was used to mediate transfection for about 6 hours. […] Briefly, cells were lysed in a lysis buffer and Firefly and Renilla Luciferase activities in cells of each well, were measured using Dual-Luciferase Assay System (Promega) and an illuminometer. The measured luciferase activities were normalized to pRL-TK Vector activity and were given relative to the basal activity of empty pGL3-Basic Vector, which was set to unity. The data shown represent mean values (±S.D.). All measurements were performed in triplicate and repeated in at least three independent experiments. The human Wnt-2 promoter-luciferase construct, the human SOCS3 promoter-Luciferase construct and the human Gremlin promoter-luciferase construct were cloned and characterized in the laboratory of Dr. Jablons at the University of California, San Francisco (San Francisco, Calif.; He et al., Biochem Biophy Res Comm, 2003; and unpublished data). The 6GLI-TKO-luciferase construct (containing 6 repeats of consensus GLI DNA binding sequence) was kindly provided by Dr. Matthias Hebrok's laboratory at the University of California, San Francisco (San Francisco, Calif.).
To further examine the specificity of the small molecule compounds FN1-5 and FN1-8 to inhibit Hh/Gli signaling pathways, GLI-dependent transcription in the absence and presence of these compounds was also determined in pancreatic cancer cells.
This finding also provides a method for inhibiting GLI1- and GLI2-dependent transcription in a cell.
The TAFII31 expression plasmid contained the full-length TAFII31 cDNA generated by PCR cloned into the EcoRI (5′) and BamHI (3′) sites of a mammalian expression vector containing a c-Myc tag (pCDNA3.1 (−)B. The sequence of TAFII31 corresponds to GenBank Accession No. U25112.

[4] = system: Dvl-3, cytosolic β-catenin, Survivin in NSCLC cells H460, A549, and H838; assay: Western blot of canonical Wnt signaling components; type: cell-based, human; details: 30 μM, 2 days; for Dvl-3 and cytosolic beta-catenin levels (Western blot): H460, A549, H838
Procedure: (§2) Whole proteins from cell cultures with or without treatments with small molecule compounds (30 μM for 2-3 days) were prepared using standard protocols (Pierce Biotechnology, Rockford, Ill.). Protein concentrations were measured using Bio-Rad Protein Assay reagent. Whole cell lysate protein (5-20 ug) were boiled for 5 min and separated by 10-20% SDS-PAGE. Proteins were transferred to an Immobilon-P membrane (Millipore Corp., Bedford, Mass.) using semi-dry transfer cell (Bio-Rad; Benicia, Calif.). The membranes were blocked with 5% nonfat milk powder and 0.1% Tween 20 in Tris-buffer saline overnight at 4° C. and then incubated with primary antibody for 1 h at room temperature. Membranes were washed in 5% nonfat milk powder and 0.1% Tween 20 in Tris-buffer saline for three 10-min periods. Horseradish peroxidase-conjugated goat anti-rabbit or donkey anti-mouse antibodies were used as secondary antibodies. Proteins were visualized with chemiluminescence luminol reagents (Santa Cruz Bio-technology). Anti-Dvl-3, and anti-Survivin, antibodies were from Santa Cruz Biotechnology (Santa Cruz, Calif.). Anti-Caspase3 antibody was from Oncogene (Cambridge, Mass.). Anti-β-Actin antibody was from Sigrna-Aldrich Corp. (St. Louis, Mo.). Anti-β-catenin antibody was from Transduction Laboratories (Lexington, Ky.). Anti-Cytochrome c antibody was from BD Biosciences (San Diego, Calif.). For detecting alteration of β-catenin cytosolic extracts were prepared and examined as described previously in the publications from our lab.

[5] = system: Dvl-3, cytosolic β-catenin, Survivin in colon cancer cells SW480, HT29, and CaCO2; assay: Western blot of canonical Wnt signaling components; type: cell-based, human; details: 30 μM, 2 days; for Dvl-3 and cytosolic beta-catenin levels (Western blot): SW480, HT29, CaCO2
Procedure: as §2

Q: Which cell killing [1] does the source give for O=C(NCCCCCO)C1C(c2ccccc2)=NN(c2ccccc2)C1c1ccccc1 (centres unmarked) [FN1-5, N-(5-Hydroxypentyl)-1,3,5-triphenyl-4,5-dihydro-pyrazole-4-carboxyamide] here?
A: dramatic cell killing

Q: And the “cell killing in Panc4.21 compared to the three other pancreatic cancer cell lines” value ([1]; Panc4.21)?
A: less

Q: What about the cell killing [2] of the same compound?
A: dramatic cell killing

Q: And the “6xGLI BS-luciferase activity (TAFII31 co-transfected with GLI1 or GLI2)” value [3]?
A: significantly reduced

Q: And the “6xGLI BS-luciferase activity (GLI1- or GLI2-induced)” value [3]?
A: significantly reduced level of luciferase activity

Q: What about the “Dvl-3 and cytosolic beta-catenin levels (Western blot)” value [4] of the same compound?
A: suppress canonical Wnt signaling

Q: And the “Dvl-3 and cytosolic beta-catenin levels (Western blot)” value [5]?
A: suppress canonical Wnt signaling

Q: With O=C(NCCc1ccc(O)cc1)C1C(c2ccccc2)=NN(c2ccccc2)C1c1ccccc1 (centres unmarked) [FN1-8, N-(2-(4-Hydroxyphenyl)ethyl)-1,3,5-triphenyl-4,5-dihydro-pyrazole-4-carboxyamide] as the compound, how does the cell killing [1] read?
A: dramatic cell killing

Q: And the “cell killing potency compared with FN1-5” value [2]?
A: more potent

Q: And the cell killing [2]?
A: dramatic cell killing

Q: And the “6xGLI BS-luciferase activity (TAFII31 co-transfected with GLI1 or GLI2)” value [3]?
A: significantly reduced

Q: What about the “6xGLI BS-luciferase activity (GLI1- or GLI2-induced)” value [3] of the same compound?
A: significantly reduced level of luciferase activity

Q: What about the “Survivin level (Western blot)” value [4] of the same compound?
A: down-regulated

Q: And the “Dvl-3 and cytosolic beta-catenin levels (Western blot)” value [4]?
A: dramatic down-regulation; also recorded: suppress canonical Wnt signaling

Q: What about the “Survivin level (Western blot)” value [5] of the same compound?
A: down-regulated

Q: And the “Dvl-3 and cytosolic β-catenin levels (Western blot)” value ([5]; HT29 cells only)?
A: no down-regulation

Q: And the “Dvl-3 and cytosolic beta-catenin levels (Western blot)” value [5]?
A: dramatic down-regulation; also recorded: suppress canonical Wnt signaling
